In the supplement of paper PMC10307832:

Experiments:
Test in all cases: relative viability (nuclei count vs DMSO), 5 days (fraction); higher = more cells survive
Midostaurin + Lapatinib = compound: CO[C@@H]1[C@H](N(C)C(=O)c2ccccc2)C[C@H]2O[C@]1(C)n1c3ccccc3c3c4c(c5c6ccccc6n2c5c31)C(=O)NC4 [Midostaurin] + CS(=O)(=O)CCNCc1ccc(-c2ccc3ncnc(Nc4ccc(OCc5cccc(F)c5)c(Cl)c4)c3c2)o1 [Lapatinib] (partner 2 µM)
How it was run: (§1)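 Lung cancer cell lines in 1536-well plates were dosed by pin tool the day after seeding, either with one drug alone or with a fixed anchor-drug dose plus five library-drug doses (not always all listed) in √10 steps. After 5 days, cells were fixed and their nuclei stained in one step (final 0.05% Triton X-100, 1% formaldehyde, 1 ug/ml Hoechst), then counted on 4× images. Relative viability is the nuclei count in treated wells divided by that in vehicle wells. Values are medians of duplicate plates.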

[1] = compound: COc1cc(-c2nn([C@H]3CC[C@H](N4CCN(C(C)=O)CC4)CC3)c3ncnc(N)c23)ccc1NC(=O)c1cc2ccccc2n1C + CC1(C)CCC(c2ccc(Cl)cc2)=C(CN2CCN(c3ccc(C(=O)NS(=O)(=O)c4ccc(N[C@H](CCN5CCOCC5)CSc5ccccc5)c(S(=O)(=O)C(F)(F)F)c4)cc3)CC2)C1 [Navitoclax] (partner 0.5 µM)
How it was run: as §1

[2] = compound: COc1cc(-c2nn([C@H]3CC[C@H](N4CCN(C(C)=O)CC4)CC3)c3ncnc(N)c23)ccc1NC(=O)c1cc2ccccc2n1C + CCNC(=O)c1noc(-c2cc(C(C)C)c(O)cc2O)c1-c1ccc(CN2CCOCC2)cc1 [Luminespib] (partner 0.01 µM)
How it was run: as §1

[3] = compound: COc1cc(-c2nn([C@H]3CC[C@H](N4CCN(C(C)=O)CC4)CC3)c3ncnc(N)c23)ccc1NC(=O)c1cc2ccccc2n1C + Cc1nc(Nc2ncc(C(=O)Nc3c(C)cccc3Cl)s2)cc(N2CCN(CCO)CC2)n1 [Dasatinib] (partner 0.075 µM)
How it was run: as §1

[4] = compound: COc1cc(-c2nn([C@H]3CC[C@H](N4CCN(C(C)=O)CC4)CC3)c3ncnc(N)c23)ccc1NC(=O)c1cc2ccccc2n1C + NC(=O)Nc1cc(-c2cccc(F)c2)sc1C(=O)N[C@H]1CCCNC1 [AZD7762] (partner 0.2 µM)
How it was run: as §1

| Cell Line | relative viability (Midostaurin + Lapatinib; first compound 0.01 µM) | relative viability (Midostaurin + Lapatinib; first compound 0.03162 µM) | relative viability (Midostaurin + Lapatinib; first compound 0.1 µM) | relative viability (Midostaurin + Lapatinib; first compound 0.3162 µM) | relative viability ([1]; first compound 0.0128 µM) | relative viability ([1]; first compound 0.128 µM) | relative viability ([1]; first compound 1.28 µM) | relative viability ([2]; first compound 0.0128 µM) | relative viability ([2]; first compound 0.128 µM) | relative viability ([2]; first compound 1.28 µM) | relative viability ([3]; first compound 0.0128 µM) | relative viability ([3]; first compound 0.128 µM) | relative viability ([3]; first compound 1.28 µM) | relative viability ([4]; first compound 0.0128 µM) | relative viability ([4]; first compound 0.128 µM) | relative viability ([4]; first compound 1.28 µM) | relative viability ([1]; first compound 0.04048 µM) | relative viability ([2]; first compound 0.04048 µM) | relative viability ([3]; first compound 0.04048 µM) | relative viability ([4]; first compound 0.04048 µM) |
| --- | --- | --- | --- | --- | --- | --- | --- | --- | --- | --- | --- | --- | --- | --- | --- | --- | --- | --- | --- | --- |
| NCI-H727 | 1.02 | 0.739 | 0.91 | 0.728 | 0.408 | 0.463 | 0.289 | 0.417 | 0.343 | 0.236 | 0.322 | 0.296 | 0.381 | 0.562 | 0.716 | 0.575 | – | – | – | – |
| NCI-H838 | 0.955 | 0.92 | 0.897 | 0.452 | 1.26 | 1.23 | 0.859 | 0.343 | 0.243 | 0.261 | 0.304 | 0.276 | 0.342 | 1 | 0.91 | 0.75 | 1.18 | 0.303 | 0.261 | 0.921 |
| NCI-H1355 | 0.979 | 0.959 | 1.08 | 1.09 | 1.02 | 0.928 | 0.967 | 0.798 | 0.726 | 0.639 | 0.834 | 0.719 | 0.884 | 0.75 | 0.654 | 0.619 | 0.923 | 0.7 | 0.798 | 0.788 |
| NCI-H1395 | 1.04 | 1.12 | 0.912 | 1.3 | 0.963 | 1.16 | 0.881 | 0.631 | 0.646 | 0.398 | 0.414 | 0.465 | 0.449 | 0.459 | 0.402 | 0.322 | 1.26 | 0.651 | 0.464 | 0.394 |
| NCI-H1437 | 0.808 | 0.848 | 0.773 | 0.882 | 1.09 | 1.05 | 1.02 | 1.24 | 1.12 | 1.08 | 0.428 | 0.439 | 0.302 | 1.14 | 1.04 | 0.96 | 1.1 | 1.16 | 0.437 | 1.15 |
| NCI-H1651 | 0.74 | 0.931 | 0.787 | 1.05 | 1.09 | 1.07 | 0.963 | 0.797 | 0.942 | 0.743 | 0.426 | 0.432 | 0.458 | 0.466 | 0.49 | 0.397 | 1.07 | 0.859 | 0.568 | 0.457 |
| NCI-H1666 | 0.74 | 0.617 | 0.81 | 0.634 | 0.883 | 0.806 | 0.955 | 0.926 | 1.01 | 1.04 | 0.766 | 0.802 | 0.756 | 0.821 | 0.802 | 0.741 | 0.805 | 0.994 | 0.807 | 0.841 |
| NCI-H1734 | 1.01 | 1.1 | 1.07 | 1.12 | 0.879 | 0.744 | 0.736 | 0.219 | 0.16 | 0.172 | 0.429 | 0.531 | 0.516 | 0.614 | 0.578 | 0.508 | 0.719 | 0.19 | 0.599 | 0.519 |
| NCI-H1755 | 1.03 | 0.976 | 0.903 | 0.917 | 1.09 | 0.927 | 0.803 | 0.501 | 0.48 | 0.308 | 0.452 | 0.43 | 0.433 | 0.501 | 0.371 | 0.417 | 1.01 | 0.418 | 0.386 | 0.344 |
| NCI-H1792 | 0.932 | 0.875 | 0.862 | 0.91 | 0.611 | 0.609 | 0.624 | 0.424 | 0.498 | 0.35 | 0.505 | 0.749 | 0.645 | 0.646 | 0.632 | 0.517 | 0.499 | 0.46 | 0.731 | 0.679 |
| NCI-H1793 | 0.971 | 0.715 | 0.767 | 0.75 | 0.5 | 0.332 | 0.258 | 0.166 | 0.168 | 0.156 | 0.392 | 0.401 | 0.346 | 0.591 | 0.326 | 0.192 | 0.571 | 0.186 | 0.35 | 0.341 |
| NCI-H1915 | 0.865 | 0.972 | 0.956 | 1.04 | 0.851 | 0.758 | 0.706 | 0.877 | 0.625 | 0.678 | 0.313 | 0.271 | 0.333 | 0.714 | 0.69 | 0.448 | 0.755 | 0.691 | 0.278 | 0.665 |
| NCI-H1944 | 0.783 | 0.794 | 0.898 | 0.977 | 1.04 | 0.982 | 0.764 | 0.667 | 0.783 | 0.477 | 0.221 | 0.224 | 0.206 | 0.605 | 0.485 | 0.352 | 0.999 | 0.647 | 0.203 | 0.539 |
| NCI-H1975 | 0.82 | 0.893 | 0.871 | 0.665 | 1.11 | 1.08 | 0.697 | 0.249 | 0.159 | 0.123 | 0.345 | 0.357 | 0.24 | 0.761 | 0.632 | 0.429 | 1.17 | 0.186 | 0.294 | 0.731 |
| NCI-H1993 | 0.831 | 0.805 | 0.809 | 0.79 | 0.898 | 0.873 | 0.709 | 0.768 | 0.589 | 0.767 | 0.5 | 0.428 | 0.599 | 0.823 | 0.715 | 0.752 | 0.886 | 0.825 | 0.499 | 0.549 |
| NCI-H2085 | 0.759 | 0.857 | 0.823 | 0.639 | 1.16 | 1.19 | 1.01 | 0.416 | 0.445 | 0.43 | 0.237 | 0.249 | 0.219 | 1.08 | 0.854 | 0.427 | 1.23 | 0.524 | 0.246 | 0.929 |
| NCI-H2087 | 1.09 | 0.889 | 1.02 | 1.4 | 1.03 | 1.02 | 1.2 | 0.196 | 0.165 | 0.152 | 1.11 | 0.733 | 0.857 | 1.31 | 1.18 | 1.08 | 0.908 | – | – | – |
| NCI-H2126 | 0.753 | 0.687 | 0.808 | 0.833 | 0.858 | 0.79 | 0.641 | 0.947 | 0.844 | 0.648 | 0.635 | 0.626 | 0.506 | 1.06 | 0.976 | 0.817 | 0.863 | 0.957 | 0.609 | 0.988 |
| NCI-H2170 | 0.29 | 0.259 | 0.255 | 0.285 | 0.652 | 0.579 | 0.453 | 0.663 | 0.669 | 0.373 | 0.554 | 0.559 | 0.592 | 0.914 | 0.788 | 0.6 | 0.749 | 0.79 | 0.494 | 0.928 |
| NCI-H2347 | 0.883 | 0.863 | 0.956 | 1.11 | 0.864 | 0.769 | 0.858 | 0.619 | 0.576 | 0.34 | 0.262 | 0.333 | 0.308 | 0.773 | 0.64 | 0.565 | 0.794 | – | – | 0.55 |
| NCI-H2405 | 1.03 | 1.27 | – | 1.11 | 0.744 | 0.729 | 0.265 | 0.862 | 0.56 | 0.251 | 0.252 | 0.192 | 0.179 | 0.707 | 0.573 | 0.349 | 0.639 | 0.529 | 0.216 | 0.615 |
| NCI-H3122 | 0.981 | 1.02 | 0.957 | 1.02 | 1.03 | 1.01 | 0.869 | 0.0938 | 0.0759 | 0.069 | 0.854 | 0.775 | 0.809 | 1.06 | 0.958 | 0.845 | – | – | – | – |
| PC-3 [JPC-3] | 0.432 | 0.439 | 0.488 | 0.43 | 0.904 | 0.776 | 0.86 | 0.681 | 0.712 | 0.711 | 0.985 | 0.922 | 1.03 | 0.654 | 0.834 | 0.76 | 0.803 | 0.838 | 0.881 | 0.877 |
| PC-14 | 0.345 | 0.289 | 0.302 | 0.266 | 1.05 | 0.987 | 1.21 | 0.196 | 0.232 | 0.121 | 0.243 | 0.282 | 0.278 | 0.42 | 0.365 | 0.355 | 1.05 | 0.138 | 0.265 | 0.417 |
| RERF-LC-KJ | 0.881 | 0.91 | 0.907 | 0.922 | 0.829 | 0.94 | 0.837 | 1.24 | 1.28 | 1.29 | 0.816 | 0.772 | 0.794 | 0.911 | 0.981 | 0.749 | 1.09 | 1.36 | 0.76 | 0.949 |
